Measurements as given in patent US10781182B2, “Compounds, process for obtaining the compounds, pharmaceutical composition, use of the compounds and method for treating psychiatric disorders and/or sleep disorders” (ACHÉ LABORATÓRIOS FARMACÊUTICOS S.A., priority 2016, dated 2020).
In brackets after ≈: the same amount, converted by molar mass.

Columns and labels:
[1] = conjugate acid, J. Org. Chem. 1961; cited from earlier work
melatonin receptors = conditions: Depreux et al. 1994; cited from earlier work
[2] = Permeability in Caco-2 cells; type: in vitro ADME; conditions: human, Caco-2, pH 6.5, 37° C.; for Papp A→B at 60 min: apical to basolateral, read-out: Permeability A-B (pH 6.5/7.4); for Papp B→A at 40 min: basolateral to apical, read-out: Permeability B-A (pH 6.5/7.4)
Procedure: Permeability tests were performed using Caco-2 cells, a colorectal epithelial adenocarcinoma cell line. These cells resemble intestinal epithelial cells in some aspects, such as the formation of a polarized monolayer, a well-defined brush border on the apical surface, and intercellular junctions.
The test is performed in both directions [apical to basolateral (A-B) and basolateral to apical (B-A)] through the cell monolayer, allowing an efflux ratio that provides an indicator as to whether a compound undergoes active efflux. Particle detection was performed with HPLC-MS/MS (mass spectrometry) according to the calculation of the peak area of the result. MS/MS was performed by combining two mass detectors in a single instrument.
A-B permeability was performed at pH 6.5/7.4 with incubation time of 0 and 60 minutes at 37° C. and B-A permeability was performed at pH 6.5/7.4 with incubation time of 0 and 40 minutes at 37° C.

[3] = Water solubility (shake-flask, PBS pH 7.4); type: physicochemical; conditions: aqueous buffer, thermodynamic from solid
Procedure: In addition, chromatographic purity (%) was defined as the calculation of the main peak area relative to the calculation of the peak area integrate of the standard HPLC calibration chromatogram. A standard calibration chromatogram was then generated for each compound tested along with a UV/VIS spectrum with maximal labeled absorbance. The shake-flash technique was used with constant stirring during incubation to keep a uniform medium for 24 hours in PBS at pH 7.4.

human hepatocytes = assay: Intrinsic clearance in cryopreserved human hepatocytes; type: in vitro ADME
Procedure: (§1) Cryopreserved hepatocytes from humans, rats (Sprague-Dawley males) and from mice (CD-1 males) were used for incubation at different times (0, 0.5, 1, 1.5, 2 hours) at 37° C. followed by HPLC-MS/MS detection. The aim was to verify the clearance time of the test substance on hepatocytes. The experiment was performed on a 96-well plate and the cryopreserved hepatocytes were thawed and resuspended in Krebs-Heinslet buffer(pH 7.3). The reaction was started by adding each test compound to each cell suspension and performing the incubation at the times indicated above. The reaction was quenched with addition of acetonitrile in the wells and detection by HPLC-MS/MS (mass spectrometry). MS/MS is performed by combining two mass detectors into a single instrument.

[4] = test system: rat hepatocytes (Sprague-Dawley males); assay: Intrinsic clearance in cryopreserved rat hepatocytes; type: in vitro ADME
Procedure: as §1

[5] = test system: mouse hepatocytes (CD-1 males); assay: Intrinsic clearance in cryopreserved mouse hepatocytes; type: in vitro ADME
Procedure: as §1

CYP2B6 = CYP2B6 (Homo sapiens (Human), UniProt P20813); assay: CYP inhibition, fluorogenic substrate; type: in vitro ADME; design: dose or concentration left out as unconfirmed; conditions: recombinant CYP2B6, pH 7.4
Description: (§2) The CYP inhibition test used fluorogenic substrates specific to each CYP to check for inhibition thereof by detection of the expected metabolite using a fluorimetric method. Recombinant CYPs (CYP2B6, CYP2C8, […], CYP2C19, CYP2D6, CYP3A4) from specific humans for each cytochrome family, subfamily and polypeptide were used. The following were used as substrates: CEC (3-Cyano-7-Ethoxycoumarin) which forms as metabolite CHC (3-Cyano-7-Hydroxycoumarin); EFC (7-Ethoxy-4-trifluoromethyl coumarin), forming the metabolite HFC (7-Hydroxytri fluoromethylcoumarin); DBF (Dibenzylfluorescein) and its respective fluorescein metabolite; MFC (7-Methoxy-4-trifluoromethylcoumarin) which forms the metabolite HFC (7-Hydroxytrifluoromethylcoumarin); BFC (7-Benzyloxy-Trifluoromethylcoumarin) and its metabolite HFC; and BzRes (benzyloxyresorufin) to form resofurine. The detection of the metabolite was done with a fluorimetric method: analytical technique to identify and characterize the amount of substance by excitation using a beam of ultraviolet light and measurement of the emitted fluorescence. For detection, a 96-well plate was used. Each sample was tested in two wells (n=2) as standard condition. At least 04 wells were separated for vehicle (control). Compounds were tested at a concentration […], standard for this assay. They were preincubated with a NADPH generator system in a phosphate buffer (pH 7.4) for 5 minutes at 37° C. The reaction was started by adding the specific CYP enzymes, substrate and bovine serum albumin (BSA<0.4 mg/ml). Incubations were performed between 20-50 minutes at 37° C. according to the specific parameter of each fluorogenic substrate, for the evaluated component. Fluorescence at each well was detected before and after the incubation period.

CYP2C19 = CYP2C19 (Homo sapiens (Human), UniProt P33261); assay: CYP inhibition, fluorogenic substrate; type: in vitro ADME; design: dose or concentration left out as unconfirmed; conditions: recombinant CYP2C19, pH 7.4
Description: as §2

CYP2C8 = CYP2C8 (Homo sapiens (Human), UniProt P10632); assay: CYP inhibition, fluorogenic substrate; type: in vitro ADME; design: dose or concentration left out as unconfirmed; conditions: recombinant CYP2C8, pH 7.4
Description: as §2

CYP2C9 = CYP2C9 (Homo sapiens (Human), UniProt P11712); assay: CYP inhibition, fluorogenic substrate; type: in vitro ADME; design: dose or concentration left out as unconfirmed; conditions: recombinant CYP2C9, pH 7.4
Description: as §2

CYP2D6 = CYP2D6 (Homo sapiens (Human), UniProt P10635); assay: CYP inhibition, fluorogenic substrate; type: in vitro ADME; design: dose or concentration left out as unconfirmed; conditions: recombinant CYP2D6, pH 7.4
Description: as §2

CYP1A2 = CYP1A2 (Homo sapiens (Human), UniProt P05177); assay: CYP inhibition, fluorogenic substrate; type: in vitro ADME; design: inhibition: dose or concentration left out as unconfirmed; conditions: human, recombinant CYP1A2, pH 7.4
Description: as §2

[6] = Pharmacokinetics (PK) in rat, I.V. and oral; type: in vivo, Wistar-Han rats; conditions: oral 10 mg/kg; for AUC(0-t): Wistar-Han, plasma
Procedure: […] The study lasted for 2 weeks (including acclimation time and study), in which the route of administration was made by injection into the caudal vein and oral gavage. The treatment was carried out in a single dose: I.V. group with dose of 1 mg/kg and Oral group with dose of 10 mg/kg. […] Clinical observations were made twice a day (morning and afternoon) in the pre-dose at the 08 time points defined in the protocol. Blood collection was performed after euthanasia in the pre-dose animals at 08 defined time points and at 24 hours post-dose. The pharmacokinetic analysis parameters detected for Group IV were: half-life (t½), drug concentration at time zero (C0), last measurable plasma concentration (AUClast), area under the plasma concentration curve extrapolation percentage (AUC % ext), area under the plasma concentration curve extrapolation to infinity (AUCinf), volume of distribution (Vz), steady state volume of distribution (Vss), clearance (CL) and mean residence time (MRT). The parameters evaluated for the Oral group were: bioavailability (F %), maximum concentration reached (Cmax), time to reach maximum plasma concentration (Tmax), last measurable plasma concentration (AUClast), area under the plasma concentration curve extrapolation percentage (AUC % ext), area under the plasma concentration curve extrapolation to infinity (AUCinf), area under the plasma concentration curve extrapolation to infinity versus dose (AUCinf/Dose), half-Life (t½), and mean residence time (MRT).

[7] = oral, estimated, from literature; cited from earlier work

Sequence of CYP2C9 (P11712 whole entry): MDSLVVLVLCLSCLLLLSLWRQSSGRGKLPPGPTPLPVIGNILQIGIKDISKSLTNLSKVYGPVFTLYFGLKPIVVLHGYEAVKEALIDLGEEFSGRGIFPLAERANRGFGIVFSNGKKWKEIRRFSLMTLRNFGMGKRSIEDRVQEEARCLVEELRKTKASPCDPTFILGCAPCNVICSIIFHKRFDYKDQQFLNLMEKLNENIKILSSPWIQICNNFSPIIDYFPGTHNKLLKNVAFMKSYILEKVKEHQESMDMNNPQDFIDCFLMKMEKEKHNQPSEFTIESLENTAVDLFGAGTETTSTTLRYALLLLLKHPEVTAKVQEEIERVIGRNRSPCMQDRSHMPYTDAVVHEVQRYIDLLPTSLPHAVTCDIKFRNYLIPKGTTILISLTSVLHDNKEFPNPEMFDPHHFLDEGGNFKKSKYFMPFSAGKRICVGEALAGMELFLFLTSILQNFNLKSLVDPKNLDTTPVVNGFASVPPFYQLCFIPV
Sequence of CYP2C8 (P10632 whole entry): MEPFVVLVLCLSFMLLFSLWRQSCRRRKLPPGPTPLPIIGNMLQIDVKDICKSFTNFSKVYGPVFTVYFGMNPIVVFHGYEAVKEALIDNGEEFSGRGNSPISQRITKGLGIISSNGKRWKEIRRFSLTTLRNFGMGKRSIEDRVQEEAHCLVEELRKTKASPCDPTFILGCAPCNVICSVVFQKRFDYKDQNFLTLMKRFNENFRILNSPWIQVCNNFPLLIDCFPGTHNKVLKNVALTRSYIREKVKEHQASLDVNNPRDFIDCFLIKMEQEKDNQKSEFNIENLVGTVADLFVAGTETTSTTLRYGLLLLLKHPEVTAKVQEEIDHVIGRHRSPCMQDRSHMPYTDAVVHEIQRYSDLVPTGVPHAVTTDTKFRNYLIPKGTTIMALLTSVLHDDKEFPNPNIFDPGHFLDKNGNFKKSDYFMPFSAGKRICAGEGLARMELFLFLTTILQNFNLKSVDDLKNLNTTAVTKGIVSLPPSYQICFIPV
Sequence of CYP2B6 (P20813 whole entry): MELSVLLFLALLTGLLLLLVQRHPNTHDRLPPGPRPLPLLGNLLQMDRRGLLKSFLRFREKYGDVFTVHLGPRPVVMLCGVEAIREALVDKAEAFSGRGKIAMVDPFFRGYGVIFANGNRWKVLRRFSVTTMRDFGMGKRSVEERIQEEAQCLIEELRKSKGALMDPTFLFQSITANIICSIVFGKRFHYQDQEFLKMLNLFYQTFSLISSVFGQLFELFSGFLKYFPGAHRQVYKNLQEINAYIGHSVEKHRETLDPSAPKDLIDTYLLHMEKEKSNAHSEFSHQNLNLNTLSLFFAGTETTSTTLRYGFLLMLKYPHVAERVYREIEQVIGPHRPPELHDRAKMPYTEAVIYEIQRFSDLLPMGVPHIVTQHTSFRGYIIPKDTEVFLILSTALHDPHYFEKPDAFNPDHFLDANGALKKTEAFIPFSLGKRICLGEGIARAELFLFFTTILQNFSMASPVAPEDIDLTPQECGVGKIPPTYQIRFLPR
Sequence of CYP2D6 (P10635 whole entry): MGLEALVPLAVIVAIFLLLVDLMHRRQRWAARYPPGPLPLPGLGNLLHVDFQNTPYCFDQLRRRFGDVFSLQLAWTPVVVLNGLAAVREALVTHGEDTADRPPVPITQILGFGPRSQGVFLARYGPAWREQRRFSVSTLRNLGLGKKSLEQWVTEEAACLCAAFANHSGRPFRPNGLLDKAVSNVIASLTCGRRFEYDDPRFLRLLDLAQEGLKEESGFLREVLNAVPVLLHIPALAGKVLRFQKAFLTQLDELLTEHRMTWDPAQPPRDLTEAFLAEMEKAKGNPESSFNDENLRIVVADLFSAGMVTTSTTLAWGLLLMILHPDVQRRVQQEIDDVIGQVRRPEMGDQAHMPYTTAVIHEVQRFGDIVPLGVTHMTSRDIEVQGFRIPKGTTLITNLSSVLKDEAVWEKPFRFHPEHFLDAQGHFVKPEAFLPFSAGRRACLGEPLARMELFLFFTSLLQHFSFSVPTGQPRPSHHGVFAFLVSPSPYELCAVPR
Sequence of CYP2C19 (P33261 whole entry): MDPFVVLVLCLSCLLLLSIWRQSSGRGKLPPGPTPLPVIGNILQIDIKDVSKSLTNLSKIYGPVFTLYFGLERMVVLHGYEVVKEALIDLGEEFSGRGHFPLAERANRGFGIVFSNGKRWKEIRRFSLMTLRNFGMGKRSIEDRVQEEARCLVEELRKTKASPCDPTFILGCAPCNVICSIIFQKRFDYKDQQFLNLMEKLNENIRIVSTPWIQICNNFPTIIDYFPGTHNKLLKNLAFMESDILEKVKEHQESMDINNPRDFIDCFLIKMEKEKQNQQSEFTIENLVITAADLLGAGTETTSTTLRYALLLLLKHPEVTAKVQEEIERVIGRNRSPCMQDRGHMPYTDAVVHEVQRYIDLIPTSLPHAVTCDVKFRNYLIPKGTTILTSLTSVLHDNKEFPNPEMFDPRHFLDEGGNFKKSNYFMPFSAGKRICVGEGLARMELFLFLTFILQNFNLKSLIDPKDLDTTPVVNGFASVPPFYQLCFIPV
Sequence of CYP1A2 (P05177 whole entry): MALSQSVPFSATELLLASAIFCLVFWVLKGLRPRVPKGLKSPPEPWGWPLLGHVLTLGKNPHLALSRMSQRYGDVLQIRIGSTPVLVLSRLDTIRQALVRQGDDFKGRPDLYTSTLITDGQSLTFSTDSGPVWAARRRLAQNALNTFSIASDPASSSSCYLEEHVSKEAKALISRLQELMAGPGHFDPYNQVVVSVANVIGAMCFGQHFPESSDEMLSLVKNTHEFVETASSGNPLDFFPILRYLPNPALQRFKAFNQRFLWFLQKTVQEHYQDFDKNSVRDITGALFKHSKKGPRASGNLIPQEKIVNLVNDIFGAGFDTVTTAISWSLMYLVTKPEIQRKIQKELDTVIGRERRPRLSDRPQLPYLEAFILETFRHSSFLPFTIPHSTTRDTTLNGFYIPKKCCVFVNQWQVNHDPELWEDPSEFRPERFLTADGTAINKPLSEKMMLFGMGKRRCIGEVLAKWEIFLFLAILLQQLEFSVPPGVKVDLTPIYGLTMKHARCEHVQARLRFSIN

Compound | pKa [1] | affinity, times lower than melatonin affinity (melatonin receptors) | Papp A→B at 60 min [2] | Papp B→A at 40 min [2] | solubility at 24 h [3] | Intrinsic clearance half-life, Human (human hepatocytes) | Intrinsic clearance half-life, Rat Sprague-Dawley [4] | Intrinsic clearance half-life, Mouse CD-1 [5] | inhibition (CYP2B6) | inhibition (CYP2C19) | inhibition (CYP2C8) | inhibition (CYP2C9) | inhibition (CYP2D6) | inhibition (CYP1A2) | AUC(0-t) [6] | AUClast [6] | absolute bioavailability [7]
c1ccc2[nH]cnc2c1 [unsubstituted benzimidazole, benzimidazole] | above 6 | – | – | – | – | – | – | – | – | – | – | – | – | – | – | – | –
COc1ccc2ncn(CCNC(C)=O)c2c1 [N-[2-(6-methoxybenzimidazol-1-yl)-ethyl]acetamide] | – | approximately 3,200 times | – | – | – | – | – | – | – | – | – | – | – | – | – | – | –
CCOc1nc2cc(Cl)c(OC)cc2n1CCCNC(C)=O [IA2-142] | – | – | 34 ×10⁻⁶ cm/s | 57.8 ×10⁻⁶ cm/s | 181 µM (≈ 58.9 µg/mL) | >120 min | >120.0 min | >120 min | 0.5% | 27.7% | -4.7% | 13% | 6.9% | – | – | – | –
CCOc1nc2ccc(OC)cc2n1CCCNC(C)=O [IA2-120] | – | – | 32.1 ×10⁻⁶ cm/s | 29.5 ×10⁻⁶ cm/s | 200 µM (≈ 58.3 µg/mL) | >120 min | 53 min | >120 min | 7.9% | 6.4% | 9.1% | 26.7% | -0.3% | – | – | – | –
COc1ccc2nc(OC)n(CCCNC(C)=O)c2c1 [IA2-140] | – | – | 27.3 ×10⁻⁶ cm/s | 55.1 ×10⁻⁶ cm/s | 197 µM (≈ 54.7 µg/mL) | >120 min | >120.0 min | >120 min | 0.4% | 7.2% | -2.2% | 2.6% | 0.3% | -0.7% | 2440 ng·h/mL | – | –
CCOc1nc2cc(Cl)c(OC)cc2n1CCNC(C)=O [IA2-121] | – | – | 58.2 ×10⁻⁶ cm/s | 32.1 ×10⁻⁶ cm/s | 200 µM (≈ 62.4 µg/mL) | >120 min | 52 min | >120 min | 8.4% | 33.8% | 7% | 23.7% | 0.9% | – | – | – | –
COc1cc2c(cc1Cl)nc(OC)n2CCNC(C)=O [IA2-143] | – | – | 21.3 ×10⁻⁶ cm/s | 71.8 ×10⁻⁶ cm/s | 197 µM (≈ 58.6 µg/mL) | – | 108 min | – | -1.1% | 10% | -13% | -9.6% | 0.8% | 1.4% | 4050 ng·h/mL | 4049 ng·h/mL | –
CCC(=O)NCC[C@@H]1CCc2ccc3c(c21)CCO3 [ramelteon] | – | – | – | – | – | – | – | – | – | – | – | – | – | – | – | – | 1.8%
